The source of these data is ChEMBL document CHEMBL5465560, “Selectivity Literature for EUbOPEN Chemogenomic Library” (2024).

The target of experiment [1] is Serine/threonine-protein kinase/endoribonuclease IRE2 (Homo sapiens) (UniProt Q76MJ5). Put plainly: Selectivity interaction (LanthaScreen Eu Kinase Binding Assay) EUB0001632a ERN2. The conditions noted are these: at 10 µM. In general terms: Time-resolved FRET reads energy transfer from a long-lived donor to a nearby acceptor.
Experiment [2] concerns the target T1, Dual specificity mitogen-activated protein kinase kinase 4 (Homo sapiens) (UniProt P45985).
T1 sequence (whole entry): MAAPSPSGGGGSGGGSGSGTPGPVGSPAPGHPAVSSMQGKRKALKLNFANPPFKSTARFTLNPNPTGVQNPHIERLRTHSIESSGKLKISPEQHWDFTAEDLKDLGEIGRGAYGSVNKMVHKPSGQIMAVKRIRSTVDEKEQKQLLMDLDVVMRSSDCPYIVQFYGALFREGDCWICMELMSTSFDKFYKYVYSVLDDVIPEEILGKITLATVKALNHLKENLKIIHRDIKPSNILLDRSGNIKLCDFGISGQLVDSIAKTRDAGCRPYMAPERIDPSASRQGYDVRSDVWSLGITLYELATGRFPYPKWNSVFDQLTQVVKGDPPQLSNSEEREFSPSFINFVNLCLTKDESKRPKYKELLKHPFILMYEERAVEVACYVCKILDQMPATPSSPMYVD
Put plainly: Selectivity interaction (KinomeScan (DiscoverX)) EUB0000595a MAP2K4. The conditions noted are these: at 10 µM.

In experiment [3] the target is T2, Membrane-associated tyrosine- and threonine-specific cdc2-inhibitory kinase (Homo sapiens) (UniProt Q99640).
T2 sequence (whole entry): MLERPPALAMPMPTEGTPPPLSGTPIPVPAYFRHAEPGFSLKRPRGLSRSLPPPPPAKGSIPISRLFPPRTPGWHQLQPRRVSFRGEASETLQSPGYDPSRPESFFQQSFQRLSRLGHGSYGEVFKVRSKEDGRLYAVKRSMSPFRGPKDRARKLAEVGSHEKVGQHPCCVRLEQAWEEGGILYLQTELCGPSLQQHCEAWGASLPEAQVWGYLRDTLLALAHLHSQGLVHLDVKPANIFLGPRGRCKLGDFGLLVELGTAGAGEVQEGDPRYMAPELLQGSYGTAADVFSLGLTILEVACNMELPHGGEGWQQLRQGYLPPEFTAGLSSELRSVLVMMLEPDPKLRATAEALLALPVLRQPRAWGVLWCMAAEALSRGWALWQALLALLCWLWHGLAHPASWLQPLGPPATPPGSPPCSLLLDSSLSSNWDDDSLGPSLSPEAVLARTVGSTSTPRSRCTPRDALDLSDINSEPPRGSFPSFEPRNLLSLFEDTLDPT
Put plainly: Selectivity interaction (KinomeScan (DiscoverX)) EUB0000607a PKMYT1. To be noted: at 10 µM.

The target of experiment [4] is Mitogen-activated protein kinase kinase kinase 9 (Homo sapiens) (UniProt P80192). The conditions noted are these: at 10 µM.
In experiment [5] the target is DNA-dependent protein kinase catalytic subunit (Homo sapiens) (UniProt P78527). Put plainly: Selectivity interaction (Kinase panel (Invitrogen)) EUB0000639a PRKDC. The conditions noted are these: at 200 nM.
The target in experiment [6] is Cyclin-dependent kinase 17 (Homo sapiens) (UniProt Q00537). Put plainly: Selectivity interaction (ActivX KiNativ screen (kinase selectivity in THP-1 cell lysates)) EUB0000639a CDK17. Type of experiment: subcellular. To be noted: lysate, at 1 µM.
The target in experiment [7] is Serine/threonine-protein kinase 26 (Homo sapiens, UniProt Q9P289). Briefly: Selectivity interaction (KinomeScan (DiscoverX)) EUB0000045b STK26.
Experiment [8] has as its target Serine/threonine-protein kinase MARK1 (Homo sapiens) (UniProt Q9P0L2). Put plainly: Selectivity interaction (KinomeScan (DiscoverX)) EUB0000618a MARK1. To be noted: at 10 µM.
Experiment [9] deals with Leucine-rich repeat serine/threonine-protein kinase 2 (Homo sapiens, UniProt Q5S007). Put plainly: Selectivity interaction (SelectScreen Kinase Profiling (Thermo Fisher Scientific)) EUB0001558a LRRK2. To be noted: at 1 µM.
The target in experiment [10] is Angiopoietin-1 receptor (Homo sapiens) (UniProt Q02763). Briefly: Selectivity interaction (Millipore kinase profiler) EUB0000124b TEK. The conditions noted are these: at 10 µM.
Experiment [11] concerns the target Dual specificity tyrosine-phosphorylation-regulated kinase 1A (Homo sapiens, UniProt Q13627). Briefly: Selectivity interaction (KinomeScan (DiscoverX)) EUB0000229b DYRK1A. The conditions noted are these: at 10 µM.
Experiment [12] has as its target T3, Diacylglycerol kinase eta (Homo sapiens) (UniProt Q86XP1).
T3 sequence (whole entry): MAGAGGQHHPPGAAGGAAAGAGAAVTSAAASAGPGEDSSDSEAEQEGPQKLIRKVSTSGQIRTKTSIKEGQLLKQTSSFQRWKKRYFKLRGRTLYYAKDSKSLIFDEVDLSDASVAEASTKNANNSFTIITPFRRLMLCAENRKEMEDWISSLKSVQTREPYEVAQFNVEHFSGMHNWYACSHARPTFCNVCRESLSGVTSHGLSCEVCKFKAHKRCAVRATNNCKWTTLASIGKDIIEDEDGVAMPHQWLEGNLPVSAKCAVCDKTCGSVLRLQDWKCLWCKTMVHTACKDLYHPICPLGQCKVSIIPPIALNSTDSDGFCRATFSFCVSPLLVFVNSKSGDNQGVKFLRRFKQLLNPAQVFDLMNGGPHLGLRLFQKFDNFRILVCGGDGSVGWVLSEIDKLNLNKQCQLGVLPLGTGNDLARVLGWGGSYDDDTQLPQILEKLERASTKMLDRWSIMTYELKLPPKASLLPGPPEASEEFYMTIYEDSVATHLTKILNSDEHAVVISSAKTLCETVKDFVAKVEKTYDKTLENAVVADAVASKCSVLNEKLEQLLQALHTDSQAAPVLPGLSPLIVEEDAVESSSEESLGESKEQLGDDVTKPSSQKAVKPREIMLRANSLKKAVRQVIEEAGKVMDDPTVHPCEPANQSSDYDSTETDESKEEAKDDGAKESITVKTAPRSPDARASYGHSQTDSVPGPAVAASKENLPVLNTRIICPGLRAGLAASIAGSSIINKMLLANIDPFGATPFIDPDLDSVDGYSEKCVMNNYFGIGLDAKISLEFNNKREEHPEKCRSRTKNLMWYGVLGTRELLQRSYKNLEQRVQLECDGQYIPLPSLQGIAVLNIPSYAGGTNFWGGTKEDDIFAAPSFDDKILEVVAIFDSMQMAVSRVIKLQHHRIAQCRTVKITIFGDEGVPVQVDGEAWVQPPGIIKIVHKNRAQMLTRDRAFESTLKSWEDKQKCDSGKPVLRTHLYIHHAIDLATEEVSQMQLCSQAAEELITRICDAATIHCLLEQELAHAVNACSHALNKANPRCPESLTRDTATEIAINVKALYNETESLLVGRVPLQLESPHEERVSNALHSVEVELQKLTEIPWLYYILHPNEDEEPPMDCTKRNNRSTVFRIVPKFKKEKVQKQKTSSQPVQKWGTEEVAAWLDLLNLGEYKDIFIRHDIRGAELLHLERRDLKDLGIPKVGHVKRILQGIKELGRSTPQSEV
Put plainly: Selectivity interaction (Kinase panel (KiNativ target engagement assay in Jurkat cells)) EUB0001635a DGKH. It is filed as cell-based. The conditions noted are these: Selectivity number of off-targets 0.0, Selectivity number of targets 233.0, Source Knowledge https://www.sciencedirect.com/science/article/pii/S2451945619300674?via%3Dihub, at 1 µM.

Sequence of Serine/threonine-protein kinase 26 (Q9P289 2-416 limits assumed): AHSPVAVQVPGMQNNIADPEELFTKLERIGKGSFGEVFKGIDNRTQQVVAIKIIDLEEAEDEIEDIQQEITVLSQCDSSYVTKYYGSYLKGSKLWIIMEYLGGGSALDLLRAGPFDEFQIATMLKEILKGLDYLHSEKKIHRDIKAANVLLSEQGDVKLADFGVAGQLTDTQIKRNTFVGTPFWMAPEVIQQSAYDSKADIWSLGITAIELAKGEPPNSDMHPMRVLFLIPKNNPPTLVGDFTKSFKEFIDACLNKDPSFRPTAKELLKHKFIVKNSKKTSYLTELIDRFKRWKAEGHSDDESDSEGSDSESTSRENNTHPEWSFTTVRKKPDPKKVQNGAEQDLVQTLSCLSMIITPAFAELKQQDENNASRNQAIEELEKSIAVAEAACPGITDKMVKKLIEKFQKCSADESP
Sequence of Serine/threonine-protein kinase MARK1 (Homo sapiens) (Q9P0L2 whole entry, looked up): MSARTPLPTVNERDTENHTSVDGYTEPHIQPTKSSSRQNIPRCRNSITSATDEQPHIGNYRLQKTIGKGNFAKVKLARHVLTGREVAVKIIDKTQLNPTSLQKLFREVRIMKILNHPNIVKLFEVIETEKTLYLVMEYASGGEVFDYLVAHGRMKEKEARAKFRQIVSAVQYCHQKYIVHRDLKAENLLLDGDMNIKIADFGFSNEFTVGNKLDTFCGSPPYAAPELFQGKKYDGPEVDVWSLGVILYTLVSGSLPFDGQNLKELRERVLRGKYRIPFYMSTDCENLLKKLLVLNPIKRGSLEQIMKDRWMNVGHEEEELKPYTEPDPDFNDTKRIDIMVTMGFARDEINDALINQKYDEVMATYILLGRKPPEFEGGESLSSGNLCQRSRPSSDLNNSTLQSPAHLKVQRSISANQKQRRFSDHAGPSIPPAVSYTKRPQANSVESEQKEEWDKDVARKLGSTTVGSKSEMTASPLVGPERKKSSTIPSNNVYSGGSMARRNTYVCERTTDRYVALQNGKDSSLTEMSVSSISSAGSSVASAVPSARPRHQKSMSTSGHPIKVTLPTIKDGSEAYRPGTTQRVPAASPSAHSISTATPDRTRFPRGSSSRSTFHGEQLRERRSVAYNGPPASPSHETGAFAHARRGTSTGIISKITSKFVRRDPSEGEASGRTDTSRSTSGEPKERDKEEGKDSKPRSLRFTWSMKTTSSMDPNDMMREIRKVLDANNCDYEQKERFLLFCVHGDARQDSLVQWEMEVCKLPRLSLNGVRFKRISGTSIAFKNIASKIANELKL
Sequence of Angiopoietin-1 receptor (Homo sapiens) (Q02763 whole entry): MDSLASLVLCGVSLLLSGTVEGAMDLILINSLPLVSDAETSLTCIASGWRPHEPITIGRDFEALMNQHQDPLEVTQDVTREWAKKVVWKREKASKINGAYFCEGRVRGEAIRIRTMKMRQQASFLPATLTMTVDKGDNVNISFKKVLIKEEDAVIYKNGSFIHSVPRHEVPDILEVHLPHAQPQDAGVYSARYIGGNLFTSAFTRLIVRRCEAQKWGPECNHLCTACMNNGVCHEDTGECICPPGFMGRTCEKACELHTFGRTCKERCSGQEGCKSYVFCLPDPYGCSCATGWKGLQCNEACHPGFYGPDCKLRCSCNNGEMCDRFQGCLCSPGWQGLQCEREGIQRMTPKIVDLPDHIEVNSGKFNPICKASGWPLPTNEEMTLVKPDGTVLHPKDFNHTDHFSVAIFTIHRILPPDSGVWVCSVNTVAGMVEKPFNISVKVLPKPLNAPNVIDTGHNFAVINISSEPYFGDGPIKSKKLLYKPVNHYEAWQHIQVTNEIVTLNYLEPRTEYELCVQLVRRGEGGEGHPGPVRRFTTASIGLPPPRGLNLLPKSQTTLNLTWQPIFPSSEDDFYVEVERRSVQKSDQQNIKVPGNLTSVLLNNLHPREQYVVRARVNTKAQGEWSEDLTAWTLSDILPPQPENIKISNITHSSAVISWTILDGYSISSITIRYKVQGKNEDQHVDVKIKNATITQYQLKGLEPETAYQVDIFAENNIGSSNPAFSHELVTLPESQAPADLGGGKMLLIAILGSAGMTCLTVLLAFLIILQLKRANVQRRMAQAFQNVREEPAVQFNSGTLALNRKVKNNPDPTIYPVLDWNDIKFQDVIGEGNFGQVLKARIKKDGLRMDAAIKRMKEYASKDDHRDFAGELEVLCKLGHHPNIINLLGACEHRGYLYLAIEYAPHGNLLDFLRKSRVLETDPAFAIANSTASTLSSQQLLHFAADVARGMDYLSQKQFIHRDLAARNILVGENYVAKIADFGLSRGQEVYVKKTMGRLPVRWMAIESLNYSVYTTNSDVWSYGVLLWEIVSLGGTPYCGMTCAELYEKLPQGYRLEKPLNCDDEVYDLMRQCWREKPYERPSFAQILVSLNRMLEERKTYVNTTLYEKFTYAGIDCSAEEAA
Sequence of Cyclin-dependent kinase 17 (Homo sapiens) (Q00537 whole entry, looked up): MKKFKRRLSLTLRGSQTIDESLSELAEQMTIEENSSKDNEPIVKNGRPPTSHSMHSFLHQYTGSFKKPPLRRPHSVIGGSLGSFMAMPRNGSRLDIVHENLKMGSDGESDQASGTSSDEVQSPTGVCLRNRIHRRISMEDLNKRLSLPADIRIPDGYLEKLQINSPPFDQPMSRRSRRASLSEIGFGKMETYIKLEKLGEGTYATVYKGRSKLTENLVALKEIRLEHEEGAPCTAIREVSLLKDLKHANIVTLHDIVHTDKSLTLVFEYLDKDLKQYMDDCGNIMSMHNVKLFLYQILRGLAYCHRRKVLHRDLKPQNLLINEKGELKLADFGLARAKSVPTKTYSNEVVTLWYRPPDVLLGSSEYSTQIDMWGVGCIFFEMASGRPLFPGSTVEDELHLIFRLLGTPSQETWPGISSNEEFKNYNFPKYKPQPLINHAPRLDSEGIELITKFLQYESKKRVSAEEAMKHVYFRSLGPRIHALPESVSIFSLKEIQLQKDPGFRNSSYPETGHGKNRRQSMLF
Sequence of Mitogen-activated protein kinase kinase kinase 9 (Homo sapiens) (P80192 whole entry, looked up): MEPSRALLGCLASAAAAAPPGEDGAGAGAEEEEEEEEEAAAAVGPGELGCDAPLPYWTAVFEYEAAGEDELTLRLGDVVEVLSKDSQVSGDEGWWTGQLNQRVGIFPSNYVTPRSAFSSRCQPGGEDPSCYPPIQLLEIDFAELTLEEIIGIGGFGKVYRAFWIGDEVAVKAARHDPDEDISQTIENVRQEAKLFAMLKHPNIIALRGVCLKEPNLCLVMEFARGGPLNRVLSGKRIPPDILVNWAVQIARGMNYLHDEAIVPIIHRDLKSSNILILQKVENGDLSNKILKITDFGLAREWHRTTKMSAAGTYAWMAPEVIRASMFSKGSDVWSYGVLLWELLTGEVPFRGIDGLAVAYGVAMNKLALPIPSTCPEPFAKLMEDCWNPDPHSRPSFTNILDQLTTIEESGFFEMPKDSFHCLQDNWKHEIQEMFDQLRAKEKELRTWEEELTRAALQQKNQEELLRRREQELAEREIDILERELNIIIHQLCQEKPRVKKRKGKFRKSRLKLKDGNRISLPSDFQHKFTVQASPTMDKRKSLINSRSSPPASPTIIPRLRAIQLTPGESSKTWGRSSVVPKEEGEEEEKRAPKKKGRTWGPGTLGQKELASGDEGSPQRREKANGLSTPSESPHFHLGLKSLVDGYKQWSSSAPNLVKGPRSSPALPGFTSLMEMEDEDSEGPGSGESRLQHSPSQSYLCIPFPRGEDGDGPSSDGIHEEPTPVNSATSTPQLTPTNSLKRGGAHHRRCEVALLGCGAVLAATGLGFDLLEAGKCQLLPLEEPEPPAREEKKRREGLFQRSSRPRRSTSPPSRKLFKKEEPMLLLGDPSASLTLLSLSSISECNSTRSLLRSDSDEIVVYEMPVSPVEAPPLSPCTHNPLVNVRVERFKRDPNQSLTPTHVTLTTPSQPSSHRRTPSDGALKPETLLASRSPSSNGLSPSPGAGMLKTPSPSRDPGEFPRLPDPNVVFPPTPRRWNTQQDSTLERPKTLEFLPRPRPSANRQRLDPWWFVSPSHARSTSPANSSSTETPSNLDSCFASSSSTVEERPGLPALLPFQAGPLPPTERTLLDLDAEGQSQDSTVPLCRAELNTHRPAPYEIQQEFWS
Sequence of Serine/threonine-protein kinase/endoribonuclease IRE2 (Homo sapiens) (Q76MJ5 35-926 limits assumed): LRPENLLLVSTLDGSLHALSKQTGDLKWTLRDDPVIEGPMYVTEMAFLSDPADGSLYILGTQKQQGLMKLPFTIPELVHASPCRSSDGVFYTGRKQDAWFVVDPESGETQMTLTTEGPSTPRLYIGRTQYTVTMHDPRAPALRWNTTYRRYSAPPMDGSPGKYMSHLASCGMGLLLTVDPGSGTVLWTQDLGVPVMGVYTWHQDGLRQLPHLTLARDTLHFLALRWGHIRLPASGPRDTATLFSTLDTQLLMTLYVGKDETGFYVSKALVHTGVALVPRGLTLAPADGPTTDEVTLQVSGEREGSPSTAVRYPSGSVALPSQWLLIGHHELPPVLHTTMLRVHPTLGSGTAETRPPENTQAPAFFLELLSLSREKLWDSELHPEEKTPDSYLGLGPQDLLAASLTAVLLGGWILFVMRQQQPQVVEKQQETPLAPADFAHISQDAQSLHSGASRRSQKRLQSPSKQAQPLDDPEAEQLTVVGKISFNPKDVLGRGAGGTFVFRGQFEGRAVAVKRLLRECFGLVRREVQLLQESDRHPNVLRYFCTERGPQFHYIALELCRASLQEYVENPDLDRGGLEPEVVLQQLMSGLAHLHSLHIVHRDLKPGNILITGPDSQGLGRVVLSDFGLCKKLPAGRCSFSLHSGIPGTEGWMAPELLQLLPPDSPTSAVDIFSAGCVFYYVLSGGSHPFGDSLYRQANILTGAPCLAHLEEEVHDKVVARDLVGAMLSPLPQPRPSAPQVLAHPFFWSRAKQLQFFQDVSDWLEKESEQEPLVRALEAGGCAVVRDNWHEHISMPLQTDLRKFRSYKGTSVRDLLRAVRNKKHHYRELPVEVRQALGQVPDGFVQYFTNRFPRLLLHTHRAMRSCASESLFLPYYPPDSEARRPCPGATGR

`Cn1cc(-n2cnc3c(NCc4nc5cc(Cl)c(Cl)cc5[nH]4)nc(N4CCOCC4)nc32)cn1`: the % of inhibition in [1] is -30.9%.

The compound `COCC(=O)NC/C=C/c1ccc2ncnc(Nc3ccc(Oc4ccc(C)nc4)c(C)c3)c2c1` [CP-724714] registered a % of control in experiment [2] of 95%.

In [3], `CNC(=O)Nc1ccc(-c2nc(N3CC4CCC(C3)O4)c3cnn(C4CCC5(CC4)OCCO5)c3n2)cc1` registered a % of control of 75%.

Compound `Cc1cc([C@@H](C)Nc2ccccc2C(=O)O)c2nc(N3CCOCC3)cc(=O)n2c1` [AZD-6482] gave a % of control in experiment [4] of 91%.

Regarding `CC[C@@H]1[C@H](F)C(=O)N[C@@H]1COc1nccc2cc(C(N)=O)c(OC)cc12` [ZIMLOVISERTIB], the % of inhibition came to 7.87% in experiment [5] and 3.9% in experiment [6].

As to `C=CC(=O)Nc1cc(-n2c(=O)ccc3cnc4ccc(-c5ccc(NS(C)(=O)=O)cc5)cc4c32)ccc1C`, the values for the % of control in experiment [7] (at 1 µM) and in experiment [7] (at 10 µM) were 100% and 90%, respectively.

`O[C@H]1CC[C@H](Nc2ncc3nc(Nc4c(F)cc(F)cc4F)n([C@H]4CCOC4)c3n2)CC1`: the % of control in [8] is 100%.

As to `CC(C)(O)[C@H](F)CN1Cc2cc(NC(=O)c3cnn4cccnc34)c(N3CCOCC3)cc2C1=O`, the % of inhibition in experiment [9] amounted to 91.4%.

In experiment [10], `CC(=O)Nc1cccc(-n2c(=O)n(C3CC3)c(=O)c3c(Nc4ccc(I)cc4F)n(C)c(=O)c(C)c32)c1` registered a % of control of 103%.

Take `COc1cc(N(C)c2ccnc3ccc(C(F)(F)F)cc23)cc(OC)c1OC`: the % binding in experiment [11] turned out to be 65%.

In the case of `C=CC(=O)Nc1ccc(C(=O)Nc2[nH]nc3c2CN(C(=O)N[C@H](CN(C)C)c2ccccc2)C3(C)C)cc1`, the % of engagement in [12] is 16.5%.
